# Experimental data as given in US8962831B2, “Tyrosine kinase inhibitors” (Principia Biopharma Inc., priority 2011, dated 2015).
# Legend:
# human recombinant Btk = human recombinant Btk (Homo sapiens, UniProt Q06187); experiment: Btk enzymatic activity assay (Caliper-based kinase assay); format: biochemical; details: human recombinant Btk 2 nM, ATP 40 μM, room temperature 3 h
# Experimental: A Caliper-based kinase assay (Caliper Life Sciences, Hopkinton, Mass.) was used to measure inhibition of Btk kinase activity of a compound of Formula (IA), (I′) or (I). […] The reaction was then terminated with EDTA, final concentration 20 mM and the phosphorylated reaction product was quantified on a Caliper Desktop Profiler (Caliper LabChip 3000). […] This value is presented as the IC50.
# protein target = protein target (Homo sapiens, UniProt Q06187); experiment: Reversibility of binding (compound in solution before and after perturbation of the target, HPLC-MS/MS)
# protein target, sequence (Q06187 2-659): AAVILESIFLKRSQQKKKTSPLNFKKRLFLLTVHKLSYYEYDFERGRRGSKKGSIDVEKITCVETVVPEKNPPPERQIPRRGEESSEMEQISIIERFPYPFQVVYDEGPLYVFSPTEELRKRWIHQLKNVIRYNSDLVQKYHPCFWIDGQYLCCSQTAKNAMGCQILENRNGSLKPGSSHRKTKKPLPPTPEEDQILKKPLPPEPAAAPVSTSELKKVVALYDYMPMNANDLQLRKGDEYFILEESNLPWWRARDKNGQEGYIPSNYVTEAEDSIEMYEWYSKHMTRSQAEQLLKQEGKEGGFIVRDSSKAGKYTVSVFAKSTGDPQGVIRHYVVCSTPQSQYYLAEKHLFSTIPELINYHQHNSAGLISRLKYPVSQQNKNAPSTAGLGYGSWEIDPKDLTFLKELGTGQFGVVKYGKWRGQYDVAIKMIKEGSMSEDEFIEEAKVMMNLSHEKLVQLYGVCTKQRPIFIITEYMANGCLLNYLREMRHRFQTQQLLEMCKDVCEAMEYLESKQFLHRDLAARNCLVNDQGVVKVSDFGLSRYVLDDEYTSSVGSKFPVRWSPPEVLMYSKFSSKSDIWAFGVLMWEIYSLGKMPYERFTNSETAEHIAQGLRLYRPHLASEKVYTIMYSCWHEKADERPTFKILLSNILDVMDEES
# Experimental: The following approach was developed to differentiate compounds that form irreversible bonds with their targets, such as acrylamide compounds, from compound that bind reversibly. […] The reactions were then treated with perturbations including both denaturation with 5 M guanidine hydrochloride and digestion with trypsin, disrupting proper folding of the target. […] The concentration of compound in solution was assessed both preceding and following perturbation using high performance liquid chromatography (HPLC) coupled to tandem mass spectrometry.
# human recombinant Btk, sequence (Q06187 whole entry): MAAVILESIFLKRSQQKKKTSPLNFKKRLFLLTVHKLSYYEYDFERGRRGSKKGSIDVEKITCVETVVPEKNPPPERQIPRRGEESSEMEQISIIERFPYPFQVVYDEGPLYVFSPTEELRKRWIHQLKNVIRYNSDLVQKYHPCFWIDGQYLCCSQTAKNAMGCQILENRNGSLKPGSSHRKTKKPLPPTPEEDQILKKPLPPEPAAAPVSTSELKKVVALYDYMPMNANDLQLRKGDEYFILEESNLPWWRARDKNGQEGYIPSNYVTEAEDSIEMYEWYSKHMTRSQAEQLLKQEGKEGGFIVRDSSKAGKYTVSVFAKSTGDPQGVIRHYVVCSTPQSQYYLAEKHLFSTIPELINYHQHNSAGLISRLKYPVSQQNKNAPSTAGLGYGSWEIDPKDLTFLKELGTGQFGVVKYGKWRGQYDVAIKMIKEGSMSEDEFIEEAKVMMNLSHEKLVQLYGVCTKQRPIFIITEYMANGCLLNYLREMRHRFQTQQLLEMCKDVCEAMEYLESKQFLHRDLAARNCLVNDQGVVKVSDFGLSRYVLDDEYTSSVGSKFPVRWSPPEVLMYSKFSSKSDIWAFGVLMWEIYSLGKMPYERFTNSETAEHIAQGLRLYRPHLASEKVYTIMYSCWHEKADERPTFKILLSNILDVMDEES
SMILES,IC50 (human recombinant Btk; compounds of Cpd Table 1) [nM],IC50 (human recombinant Btk; compounds of Cpd Table 2) [nM],also measured
"CC(C)(C)C=C(C#N)C(=O)N1CCCC(n2nc(-c3ccc(Oc4ccccc4)cc3)c3c(N)ncnc32)C1 (stereo not drawn) [Example 7, 2-(3-(4-amino-3-(4-phenoxyphenyl)-1H-pyrazolo[3,4-d]pyrimidin-1-yl)piperidine-1-carbonyl)-4,4-dimethylpent-2-enenitrile]",1.3,,
"N#CC(=CC1CC1)C(=O)N1CCC[C@@H](n2cc(-c3ccc(Oc4ccccc4)cc3)c3c(N)ncnc32)C1 [Example 27, (R)-2-(3-(4-amino-5-(4-phenoxyphenyl)-7H-pyrrolo[2,3-d]pyrimidin-7-yl)piperidine-1-carbonyl)-3-cyclopropylacrylonitrile]",,,"compound in solution following perturbation of the target (protein target; after 5 M guanidine hydrochloride denaturation and trypsin digestion): returned to solution; Compound in solution in the denatured or digested state? (protein target; after denaturation with 5 M guanidine hydrochloride and digestion with trypsin): yes; depletion of compound from solution in the native (folded) state (protein target; before perturbation): depleted; Compound in solution in the native state? (protein target; protein target at higher concentration than compound, before perturbation): no"
NC(=O)C(=CC1CC1)C(=O)N1CCC[C@@H](n2nc(-c3ccc(Oc4ccccc4F)cc3)c3c(N)ncnc32)C1 [Example 32A],1.7,,
CC(Cn1nc(-c2ccc(Oc3ccccc3)cc2F)c2c(N)ncnc21)NC(=O)C(C#N)=CC(C)(C)N (stereo not drawn) [Example 195],6,,
"N#CC(=CC1CC1)C(=O)N1CCCC(n2nc(-c3ccc(NC(=O)c4ccc(C(F)(F)F)cc4)cc3)c3c(N)ncnc32)C1 (stereo not drawn) [Table 2-1, N-(4-(4-amino-1-(1-(2-cyano-3-cyclopropylacryloyl)piperidin-3-yl)-1H-pyrazolo[3,4-d]pyrimidin-3-yl)phenyl)-4-(trifluoromethyl)benzamide]",,62,
"N#CC(=CC1CC1)C(=O)N1CCC(n2nc(-c3ccc(NC(=O)c4ccc(C(F)(F)F)cc4)cc3)c3c(N)ncnc32)CC1 [Table 2-2, N-(4-(4-amino-1-(1-(2-cyano-3-cyclopropylacryloyl)piperidin-4-yl)-1H-pyrazolo[3,4-d]pyrimidin-3-yl)phenyl)-4-(trifluoromethyl)benzamide]",,> 1000,
"CC(C)(C)C=C(C#N)C(=O)N1CCCC(n2nc(-c3ccc(NC(=O)c4ccc(C(F)(F)F)cc4)cc3)c3c(N)ncnc32)C1 (stereo not drawn) [Table 2-3, N-(4-(4-amino-1-(1-(2-cyano-4,4-dimethylpent-2-enoyl)piperidin-3-yl)-1H-pyrazolo[3,4-d]pyrimidin-3-yl)phenyl)-4-(trifluoromethyl)benzamide]",,13,
"CC(C)(C)C=C(C#N)C(=O)N1CCCC1Cn1nc(-c2ccc(NC(=O)c3ccc(C(F)(F)F)cc3)cc2)c2c(N)ncnc21 (stereo not drawn) [Table 2-5, N-(4-(4-amino-1-((1-(2-cyano-4,4-dimethylpent-2-enoyl)pyrrolidin-2-yl)methyl)-1H-pyrazolo[3,4-d]pyrimidin-3-yl)phenyl)-4-(trifluoromethyl)benzamide]",,180,
"CC(C)(C)C=C(C#N)C(=O)N1CCC(n2nc(-c3ccc(NC(=O)c4ccc(C(F)(F)F)cc4)cc3)c3c(N)ncnc32)CC1 [Table 2-6, N-(4-(4-amino-1-(1-(2-cyano-4,4-dimethylpent-2-enoyl)piperidin-4-yl)-1H-pyrazolo[3,4-d]pyrimidin-3-yl)phenyl)-4-(trifluoromethyl)benzamide]",,> 1000,
"CC(C)(C)C=C(C#N)C(=O)NC1CCC(n2nc(-c3ccc(NC(=O)c4ccc(C(F)(F)F)cc4)cc3)c3c(N)ncnc32)CC1 (stereo not drawn) [Table 2-8, N-(4-(4-amino-1-((1r,4r)-4-(2-cyano-4,4-dimethylpent-2-enamido)cyclohexyl)-1H-pyrazolo[3,4-d]pyrimidin-3-yl)phenyl)-4-(trifluoromethyl)benzamide]",,> 1000,
"CC(C)(C)C=C(C#N)C(=O)NC1CCC(n2nc(-c3ccc(NC(=O)c4ccc(C(F)(F)F)cc4)cc3)c3c(N)ncnc32)CC1 (stereo not drawn) [Table 2-10, N-(4-(4-amino-1-((1s,4s)-4-(2-cyano-4,4-dimethylpent-2-enamido)cyclohexyl)-1H-pyrazolo[3,4-d]pyrimidin-3-yl)phenyl)-4-(trifluoromethyl)benzamide]",,> 1000,
COc1cc(-c2nn(C3CCCN(C(=O)C(C#N)=CC4CC4)C3)c3ncnc(N)c23)ccc1Oc1ccc(Cl)c(Cl)c1 (stereo not drawn) [compound 4],61,,
COc1cc(-c2nn(C3CCN(C(=O)C(C#N)=CC4CC4)CC3)c3ncnc(N)c23)ccc1Oc1ccc(Cl)c(Cl)c1 [compound 6],365,,
COc1cc(-c2nn(C3CCN(C(=O)C(C#N)=CC(C)(C)C)CC3)c3ncnc(N)c23)ccc1Oc1ccc(Cl)c(Cl)c1 [compound 9],980,,
N#CC(=CC1CC1)C(=O)NC1CCC(n2nc(-c3ccc(Oc4ccccc4)cc3)c3c(N)ncnc32)CC1 (stereo not drawn) [compound 11],14,,
